Source: patent publication US8202893B2, “Cannabinergic lipid ligands” (University of Connecticut, priority 2004, dated 2012)
Like-named read-outs stand apart in the source and are kept apart here.

Key:
Mag-lipase = target: T1, Mag-lipase (Rattus norvegicus, UniProt Q8R431); experiment: Inhibition of MAG-lipase: 2-AG metabolism to arachidonic acid; assay type: biochemical; conditions: 20 min, 30 nmoles compound with 30 nmoles 2-AG, 30 μg enzyme, 300 μL
T1 construct: supernatant from final spin in the anandamide amidase preparation; from tissue; host or cells: supernatant (soluble fraction) of the anandamide amidase preparation, rat brain by the cited procedure
T1 sequence (Q8R431 1-303): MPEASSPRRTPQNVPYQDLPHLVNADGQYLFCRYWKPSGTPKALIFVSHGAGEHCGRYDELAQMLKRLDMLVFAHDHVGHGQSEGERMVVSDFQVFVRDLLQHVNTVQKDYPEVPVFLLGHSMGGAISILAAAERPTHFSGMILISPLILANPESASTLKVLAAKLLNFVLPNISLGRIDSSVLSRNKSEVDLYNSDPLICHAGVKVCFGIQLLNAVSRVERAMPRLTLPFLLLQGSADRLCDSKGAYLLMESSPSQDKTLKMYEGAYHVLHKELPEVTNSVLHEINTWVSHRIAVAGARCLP
Protocol: All compound solutions were made to a concentration of 10 mM in DMSO. Three tests were performed on each compound: hydrolysis, to determine the stability of the compound in assay conditions without the enzyme present; metabolism, to determine the stability of the compound with the enzyme present; and inhibition of 2-Arachidonoyl glycerol (native substrate) metabolism to arachidonic acid.
The inhibition of 2-AG metabolism was measured by mixing 30 nmoles of the compound with 30 nmoles 2-AG, and 30 μg enzyme preparation in TME buffer (final volume of 300 μL). Again the reaction mixture was treated in the same manner as described above and the concentrations of 2-AG and AA were calculated using external standards. Percent inhibition was calculated using the following equation: % Inhib.=(AA20-AA0)i/(AA20-AA0)s where (AA20-AA0)i is the amount of arachidonic acid formed over 20 minutes from 2-AG with the inhibitor present and (AA20-AA0)s is the amount of arachidonic acid formed over 20 minutes from 2-AG when the inhibitor is not present. […] The reaction mixtures were treated as described above and the amount of AA formed was calculated. The software package GraphPad Prism was utilized to calculate IC50 and Ki. HPLC Conditions:
Chromatographic separation was achieved using an Ultrasphere ODS Pre-column (4.6×45 mm) from Beckman. Hardware consisted of a Waters Millennium HPLC system with a 20 μL injection loop. The mobile phase consisted of 8.5% o-phosphoric acid:acetonitrile (3:7), run isocratically at a rate of 1 mL/min and detection at 204 nm. The total run time was 8 minutes with 2-AG eluting at 3.0 minutes and AA at 6.0 minutes.

anandamide transporter = experiment: [3H]Anandamide transporter competition assay; assay type: cell-based; conditions: human CCF-STG1 astrocytoma cells, 10 nM [3H]anandamide
Protocol: Human CCF-STG1 astrocytoma cells (American Type Culture collection) were grown in RPMI1640 culture medium containing 2 mM L-glutamine, 4.5 g/L glucose, 10 mM HEPES, and 1.0 mM sodium pyruvate, 10% FBS, cultures at 37° C. with 5% CO2. For standard competition assays, confluent cells grown in 24-well plates were rinsed and preincubated for 10 min at 37° C. in assay buffer (Hank's Balanced Salt Solution containing 0.1% DMSO, 10 mM HEPES) plus test compounds (at their final concentrations of 0.01-100 μM). After having discarded the preincubation media, the cells were incubated for 4 min in 0.2 ml assay buffer containing 10 nM [^3H] anandamide (137.6 Ci/mmol, New England Nuclear) plus test compounds. Reactions were stopped by removing the incubation media and rinsing the cells three times with 0.5 ml of ice-cold HBSS buffer containing 0.1% fatty acid-free Bovine Serum Albumin (sigma). Radioactive material in Triton X-100 cell extracts was measured by liquid scintillation counting. A minimum of three independent experiments conducted in six replicates was used to define the concentration needed to produce half-maximal inhibition (IC50) for each compound. IC50 values were obtained by nonlinear regression fitting of the data, using the PRIZM software package. Data are expressed as mean±SEM.

SMILES | inhibition at 100 µM (Mag-lipase) | Mag-Lipase % Inhibition (Mag-lipase) | IC50 (anandamide transporter; read-out: IC50 (AT inhib.)) | IC50 (anandamide transporter; read-out: IC50 AT inhibition)
O=C(CCC/C=C\C/C=C\C/C=C\C/C=C\CCCCc1ccccc1)NCC1CC1 [Compound A1] | 20.5% |  |  | 
COc1cc(CNC(=O)CCC/C=C\C/C=C\C/C=C\C/C=C\CCCCN=[N+]=[N-])ccc1O [Compound A7] | 13.7% |  |  | 
CC/C=C\C/C=C\C/C=C\CCCCCCCCOC(=O)NC[C@H](C)O [Compound B15] |  | 24.6% | 4.5 µM | 
[N-]=[N+]=NCCCC/C=C\C/C=C\C/C=C\C/C=C\CCCC(=O)NCC1CC1 [Compound A6] | 20.7% |  |  | 
CCCCCC=CCC=CCC=CCC=CCCCCOC(=O)NCC(C)O (centres unmarked) [Compound B3] |  | 14.3% | 1.5 µM | 
O=C(CCC/C=C\C/C=C\C/C=C\C/C=C\CCc1ccccc1)Nc1nccs1 [Compound A4] | 9.2% |  |  | 
CCCCC/C=C\C/C=C\CCCCCCCCOC(=O)NC[C@H](C)O [Compound B14] |  | 25.8% | 7.21 µM | 
O=C(CCC/C=C\C/C=C\C/C=C\C/C=C\CCCCCBr)NC1CC1 [Compound A18] | 22.5% |  |  | 6.7 µM
CCCCC/C=C\C/C=C\C/C=C\C/C=C\CCCCNC(=O)NC[C@H](C)O [Compound B12] | 11.1% |  | 1.78 µM | 
O=C(CCC/C=C\C/C=C\C/C=C\C/C=C\CCc1ccccc1)NCC1CC1 [Compound A2] | 37.5% |  |  | 
O=C(CCC/C=C\C/C=C\C/C=C\C/C=C\CCc1ccccc1)Nc1ccc(O)cc1 [Compound A3] | 16.7% |  |  | 9.1 µM
